Consider six molecules from patent US5215738A, “Benzamide and nicotinamide radiosensitizers” (SRI International, priority 1990, dated 1993).

Structures are written as SMILES. Structures can show the parent of a compound that is named as a salt.

One data set has as its system EMT6 tumors. Kind of data set: In vivo assay for radiosensitization activity (EMT6 tumors in BALB/c mice). Set-up: species or system female BALB/c mice; key: 0: No radiosensitization; 1: Minimal radiosensitization (some radiosensitization relative to controls but lowest survival>3×lowest survival with MIS); 2: Moderate radiosensitization (not good as MIS, but lowest surviving fraction<3×lowest surviving fraction with MIS); 3: Good radiosensitization (equal to MIS); 4: Excellent radiosensitization (superior to MIS). To be noted: score 0 to 4 compared with MIS, 5 mmol/kg or 2/3 of the LD50, 2,000 rad. As for the experimental part:
In Vivo Assay for Radiosensitization Activity
The compounds of the invention are tested in vivo for radiosensitization activity by the assay of Brown, J. M. Radiation Res (1975) 64:633-47, incorporated herein by reference. For this assay EMT6 tumors in female BALB/c mice weighing 20-25 g are used. These mice are bred under specific pathogen-free conditions and are 3-4 months old at the beginning of each experiment. The EMT6 tumor is grown intradermally in the flank from an inoculation of 2×10^5 tumor cells taken from the 2nd-8th in vitro passage of the tumor cells since removal from the previous in vivo tumor. Two tumors per mouse are implanted, and are used as subject tumors when they reach a volume of approximately […]. At this point the tumors contain approximately 20% hypoxic cells.
Test compounds are compared against MIS in this assay. The test compound is tested at a fixed injected dose of either 5 mmol/kg or 2/3 of the LD50 (whichever is lower), MIS is injected into controls at the same dose. Additional suitable controls of test compound-injected but nonirradiated and saline-injected and irradiated mice are also included. A fixed radiation dose of 2,000 rad is applied at variable intervals of 5 min to 2 hr between injection and irradiation. Typically, irradiation is applied at 5, 10, 15, 20, 30, 45, 60, 90, and 120 min following intraperitoneal administration of both drugs. By using these intervals, the results give an indication of both the optimum time to irradiate and of how the test compound sensitizes in relationship to MIS.
Irradiation of the EMT6 tumors is done by irradiating nonanesthetized tumor-bearing mice in a Plexiglas box. Irradiation conditions are 250 kVp X-rays, 15 mA, FSC 33 cm, added filtration of 0.35 mm Cu, half value layer 1.3 mm Cu, and a dose rate of 317 rad/min.
Radiosensitization activity is judged by survival rate of dissected and cultured tumor cells as follows: The tumor-bearing mice are killed immediately after irradiation, and tumors dissected from the skin, cut into several pieces, and made into a fine brei by high-speed chopping with a razor blade attached to a jigsaw. The brei is added to 30 ml of Hank's buffered salt solution (HBSS) containing 0.02% DNase, 0.05% promase, and 0.02% collagenase. The suspension is stirred for 30 min at 37° C., filtered, and centrifuged at 1,600 rmp for 10 min at 4° C. The cell pellet is resuspended in complete Waymouth's medium plus 12-1/2% horse serum plus 2-12% fetal calf serum (FCS) and an aliquot mixed with trypan blue and counted with the use of a hemacytometer. […] After incubation for 13 days, the colonies are fixed and stained, and those containing 50 cells or more are counted. […]
The test compound is scored on the scale of 0 to 4 based on how it compares with MIS. […]

A short description of data set [1]: Cytotoxicity test (% cell survival, hypoxic cells). It counts as cell-based, Chinese hamster. The settings on record: hamster, cho ha-1 cells, 10 mM, 22° C., hypoxia. As for the experimental part: (§1) Cytotoxicity tests were also carried out on some of the compounds. The test procedure was as follows: Log-phase Chinese hamster ovary HA-1 cells were trypsinized (0.5% trypsin in Hank's buffered salt solution (HBSS)) and plated in 60 mm Permanox petri dishes in concentrations necessary to yield approximately 30 colonies after experimental treatment. The cells were allowed to attach overnight. Then the medium was removed from each dish and replaced with 2 ml of medium containing varying concentrations of the test compound. The petri dishes were then placed in nylon chamber fitted with gassing ports and, to achieve hypoxia, were gassed at room temperature with humidified N2 containing 5% CO2 ' for 1 hr at a rate of 1 l/min. The cells are then exposed to 10 mM of the test compound for 1 hr at 22° C. The % cell survival is read after such treatment.

The subject of data set [2] is Chinese hamster ovary HA-1 cells. Kind of data set: Cytotoxicity test (% cell survival, hypoxic cells). The settings on record: 10 mM, 1 hr, 22° C., hypoxia, CHO HA-1 cells; 60 min, 10000 µM. Type of data set: cell-based. As for the experimental part:
as §1

A short description of another data set: Water solubility. Type of data set: physicochemical.
A further data set deals with Chinese hamster cells. To be noted: added during or after irradiation; non-hypoxic cells; cited from earlier work.
In data set [3] the test system is normal cells (tail growth) and tumor cells. The settings on record: nicotinamide administered prior to irradiating; cited from earlier work.

One may read the viability as a read-out of living cells in per cent, often relative to untreated cells. `NC(=O)c1cccc(OCCO)c1` [3-(2-hydroxyethoxy)benzamide]: the Radiosensitization in the data set on EMT6 tumors is listed as 3. In data set [1], this molecule had a viability at 1 h, 10000 µM of 89%.
For the molecule `COCCNc1cncc(C(N)=O)c1` [3-(2-methoxyethylamino)nicotinamide, 3-(2-methoxyethylamino) nicotinamide], the Radiosensitization with EMT6 tumors stood at 3.
For the molecule `NC(=O)c1cccc(O)c1` [3-hydroxybenzamide], in the data set on EMT6 tumors, the Radiosensitization stood at 3. The “Cytotoxicity % Cell Survival” value in data set [2] is recorded as 77%. In data set [1], the viability at 1 h, 10000 µM is 90%.
For the molecule `NC(=O)c1cncc(O)c1` [5-hydroxynicotinamide sodium salt, 5-hydroxynicotinamide], the water solubility entry in “Water solubility” is reported as “very water soluble”.
As for `NC(=O)c1cccc(N)c1` [m-aminobenzamide], the “sensitization to lethal effects of radiation” value in the data set on Chinese hamster cells is “found to sensitize these cells to the lethal effects of radiation”.
Consider `NC(=O)c1cccnc1` [nicotinamide], for which the “enhancement ratio, normal vs tumor cells” value in data set [3] is listed as “greater for normal cells in vivo than that exhibited for tumor cells”. In the data set on EMT6 tumors, the Radiosensitization is 3.
